Patent US10441590B2, “Methods for treating pulmonary hypertension” (Reviva Pharmaceuticals, Inc., priority 2015, dated 2019)
Structures can show the parent of a compound that is named as a salt. Where two headings read alike, the source gives them in different places.

How the values were obtained:
[1] = target: Human Cortex or Human recombinant 5-HT2A (Homo sapiens (Human), UniProt P28223); assay: Serotonin 5HT2A radioligand binding assay
[2] = tested on: Sugen-Hypoxia (SuHx) induced pulmonary arterial hypertension (PAH) in rats; assay: Sugen-hypoxia (SuHx) induced pulmonary arterial hypertension rat model; type: in vivo; details: for Body Weight gain / Diastolic pulmonary pressure / Lung weight / Mean pulmonary pressure / Oxygen saturation / Respiratory resistance / Right systolic ventricular pressure / Systolic pulmonary pressure: SuHx rat, Day 14 to Day 34, Day 35
Text: The assay was designed to measure the pulmonary arterial blood pressures in anaesthetized rats with PAH induced by a single subcutaneous dose of Sugen combined with three weeks in hypoxia. Combined with a macroscopic and morphometric histological examination of the tissues harvested from the animals, the results of the provide a quantitative measurement of the progression of the disease on the systemic arterial blood pressure, pulmonary arterial blood pressure, as well as wet organ weight and vascular remodeling in rats with SuHx-induced PAH treated with test article, vehicle, or reference compound.
Male Wistar-Kyoto rats (Charles River Laboratories) weighing between 200 and 250 grams (approximately 10-12 week-old) were randomized across experimental groups according to their body weight, with the aim of scheduling one rat per treatment group for each day of terminal surgery (when possible). […] Rats from Groups 2 to 4 (see Table 3) received a single subcutaneous injection of sugen (20 mg/kg) in DMSO on Day 0 and returned to their cages. Rats from Group 1 received one subcutaneous injection of DMSO (vehicle for sugen) on Day 0 and returned to their respective cages. Groups 2-4 were placed in cages for which the controlled air was adjusted to receive a FiO2 equivalent to 0.10 (10%) using a mixture of nitrogen and ambient air controlled by the ventilated cage system. They were kept under these hypoxic conditions for 21 days. While in hypoxia, cages were cleaned and changed every 48 hours, exposing the animals to ambient oxygen levels for less than 5 minutes per cleaning session. The animals were then exposed to ambient oxygen levels from Day 22 to Day 35. Group 1 animals remained in cages exposed to ambient oxygen levels for 35 days. The animals were observed on a daily basis for any changes in their behavior and general health status. […] Food and water were given ad libitum. Daily observation of the behavior and general health status of the animals was done. Weekly blood draws and body weights were taken. On the day of surgery, the rats were anaesthetized, instrumented and hemodynamic parameters (systemic arterial blood pressure, right ventricular blood pressure, pulmonary arterial blood pressure, oxygen saturation, respiratory resistance, ventilatory pressure, respiration rate and heart rate) were recorded continuously for 5 minutes or until loss of quality in the pulmonary arterial pressure signal, whichever came first. The recordings included moving the pressure transducer from the right ventricular cavity to the pulmonary artery and back, observing the very clear transitions in diastolic pressures and general pressure waveforms as the catheter entered the artery, and was withdrawn into the ventricle. The rats were then exsanguinated and the pulmonary circulation was flushed with 0.9% NaCl. The trachea, lungs and heart were removed as a whole from the thoracic cavity. The right and left lobes of the lung were weighed before being perfused with 10% NBF and immersed in 10% formalin. The lungs were stored in 10% formalin at room temperature. The heart was excised to measure the wet weights of the right ventricle (RV) and left ventricle including the septum (LV-S) as part of the Fulton index calculation.
Mean arterial blood pressure values and Fulton's index were calculated using the following formula as described above in Example 2. The study results are described in Table 4.

[3] = tested on: monocrotaline-induced pulmonary arterial hypertension (PAH) in rats; assay: Monocrotaline (MCT) induced pulmonary arterial hypertension rat model; type: in vivo; details: for Body Weight gain / Diastolic pulmonary pressure / Lung weight / Mean pulmonary pressure / Oxygen saturation / Respiratory resistance / Right systolic ventricular pressure / Systolic pulmonary pressure: MCT rat, Day 0 to Day 27, Day 28
Text: The purpose of this study was to assess the effect of the test articles on the monocrotaline-induced pulmonary arterial hypertension (PAH) in rats. The assay was designed to measure the pulmonary and systemic arterial blood pressures in anaesthetized rats with PAH induced by a single subcutaneous dose of monocrotaline. The results of the study are a quantitative measurement of the progression of the disease and its effects on the pulmonary arterial blood pressure (PAP), as well as wet organ weight in rats with induced PAH with and without treatment with test article or reference compound. Furthermore, a detailed morphometric and clinical investigation of the histology of the pulmonary vasculature was performed to correlate vascular remodeling with the functional impact of the onset of the PAH.
Male Wistar-Kyoto rats (Charles River Laboratories) weighing between 200 and 250 grams (approximately 10-12 week-old) were randomized across experimental groups, according to their body weight, with the aim of scheduling one animal per treatment group for each day of terminal surgery (when possible). […] Rats from treatment groups 2 to 4 received one subcutaneous injection of monocrotaline (MCT) solution (60 mg/kg) in DMSO on Day 0 and were returned to their cages. Rats from control group 1 received one subcutaneous injection of DMSO (vehicle for monocrotaline) on Day 0 and were returned to their respective cages. […] Food and water were given ad libitum. Daily observations of the behavior and general health status of the animals were done. Weekly blood draw, body weight and body temperature were taken.
On the day of surgery, the rats were anaesthetized, instrumented and hemodynamic parameters (systemic arterial blood pressure, right ventricular blood pressure, pulmonary arterial blood pressure, oxygen saturation, respiratory resistance, ventilatory pressure, respiration rate and heart rate) were recorded continuously for 5 minutes or until loss of quality in the pulmonary arterial pressure signal, whichever came first. The recordings included moving the pressure transducer from the right ventricular cavity to the pulmonary artery and back, observing the very clear transitions in diastolic pressures and general pressure waveforms as the catheter entered the artery, and was withdrawn into the ventricle. The rats were then exsanguinated and the pulmonary circulation was flushed with 0.9% NaCl. The trachea, lungs and heart were removed as a whole from the thoracic cavity. The right and left lobes of the lung were weighed before being perfused with 10% NBF and immersed in 10% formalin. The lungs were stored in 10% formalin at room temperature. The heart was excised to measure the wet weights of the right ventricle (RV) and left ventricle including the septum (LV-S) as part of the Fulton index calculation. Arterial blood pressure was recorded continuously throughout the experiment via an intra-arterial fluid-filled catheter (AD Instruments, Colorado Springs, Colo., USA). Diastolic and systolic pressures values were measured in mmHg using cursors readings in the Clampfit 10.2.0.14. Mean arterial blood pressure values were calculated using the following formula:
[formula] Values are presented as means±SEM (standard error of the means). Repeat unpaired Student's t-tests were performed in Microsoft Excel 2007 on all experimental conditions, comparing treatment groups to either the control, healthy animals, or the negative control animals (monocrotaline only). Differences were considered significant when p≤0.05. The study results are described in Table 2.

Human recombinant 5-HT2B = Human recombinant 5-HT2B (Homo sapiens (Human), UniProt P41595); assay: Serotonin 5HT2B radioligand binding assay
Human recombinant 5-HT7 = Human recombinant 5-HT7 (Homo sapiens (Human), UniProt P34969); assay: Serotonin 5HT7 radioligand binding assay
Human recombinant 5-HT6 = Human recombinant 5-HT6 (Homo sapiens (Human), UniProt P50406); assay: Serotonin 5HT6 radioligand binding assay
Human recombinant D2S = Human recombinant D2S (Homo sapiens (Human), UniProt P14416); assay: Dopamine D2S radioligand binding assay
Human recombinant 5-HT1A = Human recombinant 5-HT1A (Homo sapiens (Human), UniProt P08908); assay: Serotonin 5HT1A radioligand binding assay

Sequence of Human Cortex or Human recombinant 5-HT2A (P28223 whole entry): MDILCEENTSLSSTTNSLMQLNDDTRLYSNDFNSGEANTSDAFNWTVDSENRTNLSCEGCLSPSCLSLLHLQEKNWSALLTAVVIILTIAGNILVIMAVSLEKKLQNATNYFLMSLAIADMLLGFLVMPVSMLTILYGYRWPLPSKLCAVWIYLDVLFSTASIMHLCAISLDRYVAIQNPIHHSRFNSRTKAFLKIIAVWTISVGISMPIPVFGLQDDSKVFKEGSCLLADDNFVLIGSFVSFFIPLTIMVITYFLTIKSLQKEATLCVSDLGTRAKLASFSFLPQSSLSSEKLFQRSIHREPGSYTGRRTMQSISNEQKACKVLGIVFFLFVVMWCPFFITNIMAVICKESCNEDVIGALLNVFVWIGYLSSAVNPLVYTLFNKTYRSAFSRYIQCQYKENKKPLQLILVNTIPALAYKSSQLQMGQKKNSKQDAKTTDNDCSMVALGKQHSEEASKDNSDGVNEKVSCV
Sequence of Human recombinant 5-HT7 (P34969 whole entry): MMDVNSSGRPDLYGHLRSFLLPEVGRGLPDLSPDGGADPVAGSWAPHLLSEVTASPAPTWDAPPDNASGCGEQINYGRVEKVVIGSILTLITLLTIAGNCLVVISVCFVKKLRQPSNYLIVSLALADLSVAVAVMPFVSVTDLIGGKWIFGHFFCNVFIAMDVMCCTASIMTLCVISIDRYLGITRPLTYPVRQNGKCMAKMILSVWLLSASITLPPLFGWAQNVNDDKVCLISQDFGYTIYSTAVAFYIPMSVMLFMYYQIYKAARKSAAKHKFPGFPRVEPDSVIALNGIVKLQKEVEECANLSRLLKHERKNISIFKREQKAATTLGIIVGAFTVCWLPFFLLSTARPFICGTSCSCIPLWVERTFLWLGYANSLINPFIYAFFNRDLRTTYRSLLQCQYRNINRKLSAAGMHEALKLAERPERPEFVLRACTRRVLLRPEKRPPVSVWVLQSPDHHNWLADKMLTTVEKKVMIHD
Sequence of Human recombinant D2S (P14416 other isoform, or with tags, fused parts or gaps): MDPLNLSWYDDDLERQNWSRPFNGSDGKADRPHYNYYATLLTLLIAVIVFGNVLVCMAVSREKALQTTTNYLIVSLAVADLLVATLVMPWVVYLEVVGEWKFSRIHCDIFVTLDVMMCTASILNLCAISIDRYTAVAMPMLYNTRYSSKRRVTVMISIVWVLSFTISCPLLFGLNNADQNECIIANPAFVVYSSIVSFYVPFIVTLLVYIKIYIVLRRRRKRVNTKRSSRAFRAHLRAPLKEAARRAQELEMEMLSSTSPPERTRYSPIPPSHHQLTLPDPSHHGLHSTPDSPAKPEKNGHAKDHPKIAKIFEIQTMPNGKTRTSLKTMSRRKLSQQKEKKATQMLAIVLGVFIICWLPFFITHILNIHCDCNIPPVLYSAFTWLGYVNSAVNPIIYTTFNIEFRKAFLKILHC
Sequence of Human recombinant 5-HT2B (P41595 whole entry): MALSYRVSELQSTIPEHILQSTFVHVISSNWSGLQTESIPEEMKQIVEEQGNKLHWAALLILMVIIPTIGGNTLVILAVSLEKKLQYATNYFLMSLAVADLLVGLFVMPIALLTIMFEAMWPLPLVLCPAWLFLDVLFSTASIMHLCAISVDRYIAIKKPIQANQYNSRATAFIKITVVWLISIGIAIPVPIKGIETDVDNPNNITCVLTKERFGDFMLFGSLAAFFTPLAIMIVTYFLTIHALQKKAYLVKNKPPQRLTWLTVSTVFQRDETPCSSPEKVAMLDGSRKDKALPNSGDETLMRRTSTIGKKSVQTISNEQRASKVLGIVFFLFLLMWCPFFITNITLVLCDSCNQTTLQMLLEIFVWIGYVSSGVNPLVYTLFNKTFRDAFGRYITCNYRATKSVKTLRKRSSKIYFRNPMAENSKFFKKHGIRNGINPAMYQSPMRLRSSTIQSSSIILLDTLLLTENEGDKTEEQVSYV
Sequence of Human recombinant 5-HT6 (P50406 whole entry): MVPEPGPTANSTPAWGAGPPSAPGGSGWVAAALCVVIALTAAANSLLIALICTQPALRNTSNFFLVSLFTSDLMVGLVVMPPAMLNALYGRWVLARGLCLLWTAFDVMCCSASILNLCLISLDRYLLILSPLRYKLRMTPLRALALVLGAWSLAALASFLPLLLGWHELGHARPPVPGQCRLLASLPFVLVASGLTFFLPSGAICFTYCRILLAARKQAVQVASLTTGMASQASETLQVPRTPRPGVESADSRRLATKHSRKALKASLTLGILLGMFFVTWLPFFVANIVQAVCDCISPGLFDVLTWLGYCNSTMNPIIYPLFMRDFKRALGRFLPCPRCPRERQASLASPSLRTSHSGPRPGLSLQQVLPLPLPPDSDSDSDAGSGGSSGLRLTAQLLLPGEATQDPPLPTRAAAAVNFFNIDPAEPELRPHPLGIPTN

In the case of `O=C1COc2ccc(OCCCCN3CCN(c4cccc(Cl)c4Cl)CC3)cc2N1` [Compound B, 6-(4-(4-(2,3-dichlorophenyl)piperazin-1-yl)butoxy)-2H-benzo[b][1,4]oxazin-3(4H)-one hydrochloride], the Ki ([1]; hydrochloride) is reported as 2.50 nM, the Ki ([1]; listed as compound B, hydrochloride) is reported as 2.5 nM and the “efficacy for PAH” value ([2]; SuHx induced PAH rat model, summary statement) is reported as “demonstrated efficacy for PAH”. For the same molecule, the “Body Weight gain” value ([2]; 10 mg/kg bid oral gavage) was 66.7 g, the Diastolic pulmonary pressure ([2]; 10 mg/kg bid oral gavage) was 15.3 mmHg and the Lung weight ([2]; 10 mg/kg bid oral gavage) was 0.65%. It also gave a Mean pulmonary pressure ([2]; 10 mg/kg bid oral gavage) of 20.9 mmHg, an Oxygen saturation ([2]; 10 mg/kg bid oral gavage) of 95.9% and a Respiratory resistance ([2]; 10 mg/kg bid oral gavage) of 12.4. For the same molecule, the “Right systolic ventricular pressure” value ([2]; 10 mg/kg bid oral gavage) was 32.8 mmHg, the Systolic pulmonary pressure ([2]; 10 mg/kg bid oral gavage) was 32.2 mmHg and the “Body Weight gain” value ([2]; 20 mg/kg bid oral gavage) was 50.8 g. The Diastolic pulmonary pressure ([2]; 20 mg/kg bid oral gavage) was 14.7 mmHg, the Lung weight ([2]; 20 mg/kg bid oral gavage) was 0.62% and the Mean pulmonary pressure ([2]; 20 mg/kg bid oral gavage) was 20.4 mmHg. For the same molecule, the Oxygen saturation ([2]; 20 mg/kg bid oral gavage) was 96.9%, the Respiratory resistance ([2]; 20 mg/kg bid oral gavage) was 11.1 and the “Right systolic ventricular pressure” value ([2]; 20 mg/kg bid oral gavage) was 34.2 mmHg. For the same molecule, the Systolic pulmonary pressure ([2]; 20 mg/kg bid oral gavage) was 32.0 mmHg, the “severity of PAH (right ventricular hypertrophy, pulmonary artery pressure, respiratory resistance)” value ([2]; SuHx, summary statement) was “decreasing the severity of PAH” and the “efficacy for PAH” value ([3]; MCT induced PAH rat model, summary statement) was “demonstrated efficacy for PAH”. For the same molecule, the “Body Weight gain” value ([3]; 3 mg/kg bid oral gavage) was 22.9 g, the Diastolic pulmonary pressure ([3]; 3 mg/kg bid oral gavage) was 19.2 mmHg and the Lung weight ([3]; 3 mg/kg bid oral gavage) was 0.86%. For the same molecule, the Mean pulmonary pressure ([3]; 3 mg/kg bid oral gavage) was 32.0 mmHg, the Oxygen saturation ([3]; 3 mg/kg bid oral gavage) was 93.5% and the Respiratory resistance ([3]; 3 mg/kg bid oral gavage) was 15.7. For the same molecule, the “Right systolic ventricular pressure” value ([3]; 3 mg/kg bid oral gavage) was 58.4 mmHg, the Systolic pulmonary pressure ([3]; 3 mg/kg bid oral gavage) was 57.7 mmHg and the “Body Weight gain” value ([3]; 10 mg/kg bid oral gavage) was 23.1 g. For the same molecule, the Diastolic pulmonary pressure ([3]; 10 mg/kg bid oral gavage) was 14.7 mmHg, the Lung weight ([3]; 10 mg/kg bid oral gavage) was 0.86% and the Mean pulmonary pressure ([3]; 10 mg/kg bid oral gavage) was 24.1 mmHg. The Oxygen saturation ([3]; 10 mg/kg bid oral gavage) was 96.5%, the Respiratory resistance ([3]; 10 mg/kg bid oral gavage) was 10.7 and the “Right systolic ventricular pressure” value ([3]; 10 mg/kg bid oral gavage) was 43.1 mmHg. For the same molecule, the Systolic pulmonary pressure ([3]; 10 mg/kg bid oral gavage) was 43.0 mmHg, the “severity of PAH (right ventricular hypertrophy, pulmonary artery pressure, respiratory resistance)” value ([3]; MCT, summary statement) was “decreasing the severity of PAH” and the Ki (Human recombinant 5-HT2B) was 0.19 nM. It also gave a Ki (Human recombinant 5-HT7) of 2.7 nM and a Ki (Human recombinant 5-HT6) of 51 nM.

“6-(4-(4-(2-methoxyphenyl)piperazin-1-yl)butoxy)-2H-benzo[b][1,4]oxazin-3(-4H)-one hydrochloride [Compound A]” showed a Ki (Human recombinant D2S) of 0.3 nM, a Ki [1] of 118 nM and a Ki (Human recombinant 5-HT1A) of 0.65 nM.
